Assay results as given in patent US5571518A, “Cosmetic compositions containing tricholine citrate” (priority 1995, dated 1996).

Key:
Format in all cases: cell-based
human keratinocytes [1] = assay: DNA synthesis in keratinocytes (3H-thymidine incorporation, keratinocyte proliferation)
Source text: The incorporation of ^3 H-thymidine by cultured keratinocytes was used as an assay of keratinocyte proliferation. Thymidine is one of four deoxynucleosides which are the monomeric units of DNA, the universal library of genetic information in the animal kingdom. Prior to cell division of a somatic cell such as a keratinocyte, the complete genome of the cell undergoing cell division is replicated. This involves large scale DNA synthesis by the cell and enables both daughter cells to receive identical copies of the genetic material. When ^3 H-thymidine is included in the culture media of keratinocytes which are synthesizing DNA in preparation for cell division then the labelled nucleoside is incorporated into the newly synthesized DNA. The extent of incorporation of ^3 H-thymidine into a population of cells is proportional to the rate of DNA synthesis by this population of cells and therefore an indication of their cellular proliferation.
1. Normal human keratinocytes isolated from neonatal foreskins by trypsin treatment were grown in DME medium/5% fetal calf serum in the presence of mitomycin C treated 3T3 mouse fibroblasts for establishing dividing keratinocyte colonies. Keratinocytes were grown under the above condition until their third passage.
2. For the experiments, third passage keratinocytes were plated into a serum-free keratinocyte growth medium (KGM; obtained from Clonetics, San Diego, Calif.) containing 0.09 mM calcium. 20,000 to 30,000 cells were plated into each well of 24 well cell culture plates and grown for 5 days, until the cells reach about 80% confluence.
3. Medium was changed to fresh medium and the various test materials were added to the medium from an ethanolic stock solution. The final ethanol concentration in the cultures was kept below 0.2%. Control cultures received no tested material but were dosed with 0.2% ethanol. Each compound or combination was tested in three separate wells. In four hours, 1 uCi of ^3 H-thymidine (Amersham Corp., Sp activity 40 Ci/mmol) was added to the 1 ml medium in each well. The cells were incubated overnight and 24 hours later the amount of ^3 H-thymidine associated with the cellular DNA of keratinocytes was assessed as described below.
4. The medium was aspirated, and the wells washed with 1 ml phosphate-buffered saline. The DNA and proteins of the cells in the plate were then precipitated by adding 1 ml of ice-cold 10% trichloroacetic acid (TCA). The plates were left on ice for 30 minutes to complete the precipitation process. TCA was then aspirated and each well was then washed four times with 5% TCA. The plates were then dried on a filter pad and the cells in the wells were dissolved in 0.5 ml of 0.1N sodium hydroxide. The sodium hydroxide was then neutralized using 0.1N hydrochloric acid and the solution (1 ml total volume) was then transferred to a scintillation vial. 50 μl samples from each vial were used for protein assay using BCA protein assay reagent obtained from Pierce Chemical Company. 8 ml of a scintillation fluid (Ecolume) was added to the rest of the solution in the vial, and the vials were counted in a scintillation counter to determine the amount of radioactivity in each vial. The DNA synthesis rate was then calculated as cpm ^3 H thymidine incorporated into total cellular DNA/microgram of cell protein for each individual well.

human keratinocytes [2] = assay: Cornified envelope (CE) formation, marker of terminal differentiation of keratinocytes
Description: (§1) Human keratinocytes, isolated from neonatal foreskin by trypsin treatment were grown in Dulbecco Modification Eagle (DME) Hams F12 (3:1) medium/5% fetal calf serum in the presence of mitomycin C treated 3T3 mouse fibroblasts for establishing dividing keratinocyte colonies. Cells were grown under the above condition until their second passage and kept frozen for future use. Frozen second passage keratinocytes were thawed and plated into the above medium and grown for five days. On day 5, when the cells were 70-80% confluent, they were trypsinized and plated in the serum-free medium for the various experiments.
During the process of terminal differentiation in the epidermis, a 15 nm thick layer of protein, known as the cornified envelope (CE)is formed on the inner surface of the cell periphery. The CE is composed of numerous distinct proteins which have been cross-linked together by the formation of N ^ε -(-γ-glutamyl) lysine isodipeptide bonds catalyzed by the action of at least two different transglutaminases expressed in the epidermis. Transglutaminase (TG-1) is expressed in abundance in the differentiated layers of the epidermis, especially the granular layer, but is absent in the undifferentiated basal epidermis. Thus, TG-1 is a useful marker of epidermal keratinocyte differentiation with high TG-1 levels indicating a more differentiated state. An ELISA based TG-1 assay, using a TG-1 antibody, was used to assess the state of differentiation of the cultured keratinocytes in the examples that follow.
Proper skin conditioning require enhanced proliferation and differentiation of epidermal keratinocytes. The different citrate esters were tested on their effect on cornified envelope (CE) formation, a marker of terminal differentiation of keratinocytes. Citrate esters were tested at 1 mM levels in medium containing 0.15 mM Ca. Levels are expressed as % of control ±SD. The CE formation for the control was 54.48 ±31.8 cpm/μg cell protein.

human keratinocytes [3] = assay: 3H choline incorporation into phospholipids of keratinocytes
Description: as §1
Choline acts as an essential nutrient for the cellular phospholipid biosynthesis of keratinocytes. Choline present in the medium is used up by the cells for phospholipid biosynthesis. If TCC provides choline for the cells it will complete with the choline in the medium for incorporation into cellular phospholipids. When cells are incubated with ^3 H-labelled choline, its incorporation into phospholipids will be decreased by the presence of unlabelled choline or TCC in the medium.
[…] The wells were washed, total lipids were extracted using Bleigh Dyer method as described above and the total counts in the chloroform phase was determined. To ascertain that the counts are present only in the phospholipid fraction, the amount of ^3 H choline incorporated into the different lipid fractions were quantitated by running TLC of the fractions in the above solvent system, and the amount of radioactivity in the phospholipid fraction (origin) was quantitated using BioScan plate reader. The cpm of ^3 H choline was plotted against the amount of cold choline or TCC added in the medium to assess the competition between choline supplied from TCC with ^3 H choline.
The amount of ^3 H choline incorporated into cellular phospholipids was determined and expressed as % of controls.

[4] = Homo sapiens, Keratinocyte, 24 h, read-out: Rate of DNA synthesis
[5] = Homo sapiens, Keratinocyte, 48 h, read-out: 3H choline incorporated into cellular phospholipids

## O=C(O)CC(O)(CC(=O)O)C(=O)O [Citric acid, citric acid]
Human keratinocytes [1]; [4]
  activity at 0.1 µM: 88.4 ± 15.5%
  activity at 1 µM: 74.5 ± 32.2%
  activity at 10 µM: 89.9 ± 20.3%
  activity at 100 µM: 88.7 ± 5.1%
  activity at 1000 µM: 63.9 ± 11.8%
  activity at 10000 µM: 4.25 ± 2.2%
Human keratinocytes [1]; summary in Example 2
  keratinocyte proliferation, result in words: inhibit both proliferation and differentiation of keratinocytes
Human keratinocytes [2]; 1 mM, 0.15 mM Ca
  cornified envelope formation / keratinocyte differentiation, result in words: inhibited cornified envelope formation significantly
Human keratinocytes [2]; Homo sapiens, Keratinocyte, read-out: CE Levels
  activity at 1000 µM: 13.7 ± 1.1%
Human keratinocytes [2]; summary of Example 2
  keratinocyte differentiation, result in words: inhibit both proliferation and differentiation of keratinocytes
Human keratinocytes [3]; 48 hours
  choline incorporation into phospholipid fraction, result in words: no significant effect on choline incorporation into phospholipid fraction
Human keratinocytes [3]; [5]
  activity at 10 µM: 91.4 ± 12.7%
  activity at 100 µM: 77.5 ± 19.5%
  activity at 1000 µM: 74.1 ± 28.8%
